From patent publication US9371521B2, “Substituted pyrazinedithiol reducing agents” (Wisconsin Alumni Research Foundation, priority 2014, dated 2016)
≈ marks a conversion by molar mass, not a printed value. Where “and” joins values, the source holds several entries; their conditions need not be identical. Equal entries are not always repeated. Where two headings read alike, the source gives them in different places. Blank lines part the entries; values can stand above or below the molecule they belong to.

Key:
[1] = literature value [37]; cited from earlier work
[2] = cited from earlier work
[3] = Determination of thiol pKa values (pH titration monitored by UV absorbance at 238 nm); assay type: physicochemical
Method: Thiol pKa values were determined using a Varian Cary 60 UV-Vis spectrophotometer. Kinetic studies on proteins were carried out using a Varian Cary 400 Bio UV-Vis spectrometer with a Cary temperature controller at the Biophysics Instrumentation Facility at Madison (BIF). All NMR spectra were acquired at ambient temperature with a Bruker DMX-400 Avance spectrometer and a Bruker Avance III 500ii with cyroprobe spectrometer at the National Magnetic Resonance Facility at Madison (NMRFAM), and were referenced to TMS or residual protic solvent.
The thiol pKa values are determined by following a procedure reported previously that exploits the elevated absorbance of the deprotonated thiolate at 238 nm.
For BMMP determination, in eq 1, CT is the total thiol concentration, εSH^SH is the extinction coefficient of the doubly protonated form of BMMP, εSH^S- is the extinction coefficient of the singly protonated form of BMMP, and εS-^S- is the extinction coefficient of the doubly deprotonated form of BMMP.
For comparison, the thiol pKa values for DMH were determined in a similar fashion.

[4] = Reduction kinetics on oxidized βME; assay type: physicochemical; settings: for kobs for reduction of βMEox: 5 mM each
[5] = Reduction potential from equilibrium reaction with oxidized DTT (HPLC, Nernst equation); assay type: physicochemical; settings: for Keq of equilibrium reaction with DTTox / Disulfide E°′ (reduction potential of oxidized form): 50 mM potassium phosphate buffer, pH 7.0, EDTA 2 mM, 24 h; for Disulfide E°′ (reduction potential of oxidized form): assuming −0.327 V for DTT, this work
[6] = target: T1, creatine kinase-Cys283-S-S-G (Oryctolagus cuniculus, UniProt P00563); settings: literature [23]; cited from earlier work
T1 construct: creatine kinase (lyophilized powder from rabbit muscle); purchased Sigma-Aldrich (St. Louis, Mo.); host or cells: rabbit muscle (natural source)

[7] = target: T2, papain-Cys25-S—S—CH3 (Carica papaya, UniProt P00784); test: Reactivation of papain (reduction of active-site mixed disulfide); assay type: biochemical; settings: for kobs for reduction of papain-Cys25-S-S-CH3: 0.10 M imidazole-HCl buffer, pH 7.0, EDTA 2 mM
T2 construct: Papain (lyophilized powder from papaya latex); purchased Sigma-Aldrich (St. Louis, Mo.); host or cells: papaya latex (natural source)
T2 sequence (P00784 134-345): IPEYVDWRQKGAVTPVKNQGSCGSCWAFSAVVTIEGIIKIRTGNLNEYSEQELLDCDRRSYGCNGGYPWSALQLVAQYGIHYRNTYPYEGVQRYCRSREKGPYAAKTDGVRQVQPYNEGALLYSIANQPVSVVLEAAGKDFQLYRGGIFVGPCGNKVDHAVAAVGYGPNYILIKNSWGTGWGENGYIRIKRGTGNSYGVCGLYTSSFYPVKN
Method: (§1) Commercial reagents were used without further purification. Dithiothreitol (DTT) was from Research Products International (Mt. Prospect, Ill.). […].
Papain was inactivated by forming a mixed disulfide upon treatment of its active-site cysteine (Cys25) with S-methyl methanethiosulfonate following a procedure reported previously. A 1.25 mL solution of papain-Cys25-S—S—CH3 (4.4×10^−6 M) in a degassed 0.10 M imidazole-HCl buffer, pH 7.0, containing EDTA (2 mM) was placed in a 1.5-mL LoBind Eppendorf tube. At time t=0, 10 μL of a 1 mM stock solution of BMMP was added, and a timer was started. […] A unit of protein is defined as the amount of enzyme required to produce 4-nitroaniline at a rate of 1 μmol/min. The units of active papain at each time point were calculated by using an extinction coefficient for 4-nitroaniline of ε=8,800 M^−1cm^−1 at 410 nm. […] Y=enzymatic activity (%) at any time point was determined by dividing the number of active units of enzyme by the possible number of units in the solution, and plotted in FIG. 2A. To determine the value of the second-order rate constant (kobs) for the reducing agents, the second order rate equation (eq 4) was transformed into eq 5, which was fitted to the data with the program Prism 5.0.

[8] = target: T1, creatine kinase-Cys283-S-S-G; test: Reactivation of creatine kinase (reduction of mixed disulfide with glutathione); assay type: biochemical, rabbit; settings: for kobs for reduction of creatine kinase-Cys283-S-S-G: 0.10 M imidazole-HCl buffer, pH 7.0, EDTA 2 mM
Method: as §1
[21, 23] Enzymatic activity (%) at particular time points was calculated by dividing the number of active units of enzyme by the possible number of units in solution, and was plotted in FIG. 2B. Values of kobs (Table 2) were determined using eq.

[9] = literature value; cited from earlier work
[10] = Determination of BMMP solubility in buffered water (1H NMR); assay type: physicochemical; settings: aqueous buffer, thermodynamic from solid; 50 mM sodium phosphate buffer, pH 7.0
Method: A 20 mM stock solution of 2-butyne-1,4-diol (an ^1H NMR standard) was prepared in 50 mM sodium phosphate buffer, pH 7.0. BMMP was added to a solution containing 1 mL of this buffer and 0.1 mL of D2O until the solution was saturated completely. The mixture was sonicated to ensure complete dissolution and filtered into an NMR tube, and its spectrum was acquired. The solubility of BMMP was determined to be (64±14) mM by integration of the ^1H NMR peak areas of the aryl CH and methylene CH2SH protons for BMMP and the CH2OH peak for 2-butyne-1,4-diol.

[11] = Thiol pKa (second value, in parentheses)
[12] = pH 7.0, 50 mM potassium phosphate buffer
[13] = pH 5.0, 50 mM sodium acetate buffer

T1 sequence (P00563 whole entry): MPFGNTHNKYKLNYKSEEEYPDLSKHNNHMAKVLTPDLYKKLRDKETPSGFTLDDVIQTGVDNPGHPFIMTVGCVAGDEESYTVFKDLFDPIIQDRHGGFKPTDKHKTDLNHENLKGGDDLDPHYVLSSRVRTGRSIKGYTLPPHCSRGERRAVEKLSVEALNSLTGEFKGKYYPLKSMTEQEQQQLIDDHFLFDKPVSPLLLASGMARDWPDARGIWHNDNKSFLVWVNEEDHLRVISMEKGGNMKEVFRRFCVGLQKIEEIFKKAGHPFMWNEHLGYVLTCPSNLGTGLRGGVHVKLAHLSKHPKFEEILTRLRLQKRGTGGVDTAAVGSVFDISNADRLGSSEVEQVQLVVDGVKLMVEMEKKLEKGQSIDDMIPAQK

SMILES: Cc1cnc(C)cn1 [2,5-dimethylpyrazine]
- pKa of the conjugate acid [1]: 2.1

- pKa ([3]; Thiol pKa (first, lower value)): 8 ± 0.2
- pKa [3, 11]: 9.1 ± 0.1
- Disulfide E°′ (reduction potential of oxidized form) [5]: −0.262±0.004 V and −0.262±0.003 V
SMILES: CN(C(=O)CS)N(C)C(=O)CS [DMH, N,N′-dimethyl-N,N′ bis(mercaptoacetyl)hydrazine, reference compound]
- Thiol pKa (first, lower value) ([2]; literature value): 7.6
- Thiol pKa (second value, in parentheses) ([2]; literature value): 8.9
- Rate of reduction of βMEox compared with other dithiols ([4]; pH 7.0): faster than did DTT or DTBA but slower than did BMMP
- kobs for reduction of βMEox [4, 12]: 0.56 ± 0.04 M⁻¹ s⁻¹
- Keq of equilibrium reaction with DTTox [5]: 0.0065±0.0020

SMILES: SCc1nccnc1CS [drawing 7]
- pKa ([3]; Thiol pKa (first, lower value)): 7.6 ± 0.1
- pKa [3, 11]: 9
- Disulfide E°′ (reduction potential of oxidized form) [5]: −0.301 ± 0.003 V^c

- Thiol pKa (first, lower value) [3]: 8.0 ± 0.2
- Thiol pKa (second value, in parentheses) [3]: 9.1 ± 0.1
- Disulfide E°′ (reduction potential of oxidized form) [5]: −0.262 ± 0.004 V^c
SMILES: CN(C(=O)CS)N(C)C(=O)CS [drawing 5]

SMILES: N[C@H](CS)CCS [DTBA, dithiobutylamine, reference compound]
- Rate of reduction of creatine kinase mixed disulfide compared with DTT [6]: comparable to that of DTT
- kobs for reduction of papain-Cys25-S-S-CH3 [7]: 950 ± 51 M⁻¹ s⁻¹
- kobs for reduction of βMEox [4, 13]: 0.0051 ± 0.0004 M⁻¹ s⁻¹
- kobs for reduction of βMEox [4, 12]: 0.32 ± 0.02 M⁻¹ s⁻¹
- kobs for reduction of creatine kinase-Cys283-S-S-G [8]: 70 ± 2 M⁻¹ s⁻¹

SMILES: O[C@H](CS)[C@H](O)CS [DTT, dithiothreitol, reference compound]
- Fraction in the reactive thiolate form ([2]; neutral pH): less than 1%
- Disulfide E°′ (reduction potential of oxidized form) [9]: −0.327 V
- kobs for reduction of papain-Cys25-S-S-CH3 [7]: 87 ± 3 M⁻¹ s⁻¹
- kobs for reduction of βMEox [4, 13]: 0.0013 ± 0.0001 M⁻¹ s⁻¹
- kobs for reduction of βMEox [4, 12]: 0.090 ± 0.005 M⁻¹ s⁻¹
- kobs for reduction of creatine kinase-Cys283-S-S-G [8]: 82 ± 3 M⁻¹ s⁻¹

SMILES: N[C@H](CS)CCS [drawing 6]
- Disulfide E°′ (reduction potential of oxidized form) [9]: −0.317 V^d

SMILES: SCc1nccnc1CS [BMMP, 2,3-bis(mercaptomethyl)pyrazine]
- kobs for reduction of papain-Cys25-S-S-CH3 [7]: 1139 ± 62 M⁻¹ s⁻¹
- kobs^BMMP/kobs^DTT, reduction of papain Cys25-S—S—CH3 ([7]; pH 7.0): 13.1 and 13
- solubility [10]: 64 ± 14 mM (≈ 11 mg/mL)
- Observed rate of reduction of βMEox at pH 5.0 compared with DTT at pH 7.0 ([4]; BMMP pH 5.0 vs DTT pH 7.0): comparable
- kobs^BMMP/kobs^DTBA, reduction of βMEox ([4]; pH 5.0): 3.6 and 4
- kobs^BMMP/kobs^DTT, reduction of βMEox ([4]; pH 5.0): 14.1 and 14
- kobs for reduction of βMEox [4, 13]: 0.0183 ± 0.0007 M⁻¹ s⁻¹
- kobs^BMMP/kobs^DMH, reduction of βMEox ([4]; pH 7.0): 1.8
- kobs^BMMP/kobs^DTBA, reduction of βMEox ([4]; pH 7.0): 3.2 and 3
- kobs^BMMP/kobs^DTT, reduction of βMEox ([4]; pH 7.0): 11.4 and 11
- kobs for reduction of βMEox [4, 12]: 1.02 ± 0.07 M⁻¹ s⁻¹
- kobs for reduction of creatine kinase-Cys283-S-S-G [8]: 476 ± 34 M⁻¹ s⁻¹
- kobs^BMMP/kobs^DTBA, reduction of creatine kinase Cys283-S—S-glutathione ([8]; pH 7.0): 6.8 and 7
- kobs^BMMP/kobs^DTT, reduction of creatine kinase Cys283-S—S-glutathione ([8]; pH 7.0): 5.8 and 6
- Keq of equilibrium reaction with DTTox [5]: 0.137±0.036
- Disulfide E°′ (reduction potential of oxidized form) [5]: −0.301±0.003 V
- Free energy by which equilibrium favors reduced BMMP and oxidized DTT ([5]; reduced BMMP + oxidized DTT vs oxidized BMMP + reduced DTT): -1.2 kcal/mol

SMILES: OC(CS)[C@H](O)CS (mixture of isomers)
- Disulfide E°′ (reduction potential of oxidized form) [9]: −0.327 V^b
